According to patent US10597696B2, “Detection of Niemann-Pick disease comprising detection of lysozyme and cathepsins” (UNIVERSITY OF NOTRE DAME DU LAC, priority 2013, dated 2020):
“Also recorded” adds a separate entry of the source.

Key:
[1] = tested on: Npc1^nmf164 homozygous mutant mice; assay: Plasma lysozyme activity in HPβCD-treated Npc1^nmf164 mice; format: in vivo, mouse; settings: once a week i.p. from age 21-27 days, plasma at 50-55 days, vs vehicle/untreated
[2] = tested on: Npc1^nih Npc1^−/− mouse liver; assay: qPCR of cathepsins, inflammation and fibrosis markers in liver after HPβCD; format: in vivo
Text: (§1) In mice, formalin fixed paraffin embedded tissue was sectioned (4-5 μm) and total RNA was isolated using RNeasy FFPE kit (Qiagen, Germantown, Md., USA) which included treatment with DNAse. Frozen human liver and cerebellum from 4 NPC patients and 4 age-, gender- and ethnicity-matched controls were obtained from the NICHD Brain and Tissue Bank for Developmental Disorders (University of Maryland, Baltimore, Md., USA), as approved by the Institutional Review Board (IRB), of the University of Notre Dame, Ind., USA (FWA 00002462). Total RNA was isolated using RNeasy kit (Qiagen, Germantown, Md., USA). Eluted RNA was further digested with RNase free DNaseI and re-purified using RNeasy column. The quality of RNA was checked using Bioanalyzer chip (Agilent Technologies, Santa Clara, Calif., USA) and quantity was determined using Nanodrop 2000 (Thermo Fisher Scientific, Waltham, Mass., USA). Quantitative PCR (qPCR) was performed using Power SYBR Green RNA-to-CT 1-Step Kit and an ABI Prism 7500 Fast real-time PCR system (Applied Biosystems, Grand Island, USA). Reaction was set in 20 μl using 100 nM primers and 5-100 ng total RNA as template. The thermal cycling parameters were as follows: step 1, 48° C. for 30 min; step 2, 95° C. for 10 min; step 3, 95° C. for 15 sec ° C.; step 4, 60° C. for 15 sec. Step 3-4 was repeated for 40 cycles followed by melt curve analysis. Specific amplification was validated by analysis of template titration, melt curves and agarose gel electrophoresis. In both mouse and human tissues, the mRNA levels were normalized to the housekeeping gene, Gapdh (Glyceraldehyde 3-phosphate dehydrogenase). Fold change was calculated by relative standard curve method after correcting PCR efficiency. In mice, the fold change in expression levels of different genes in Npc1^−/− was calculated relative to average levels of expression in Npc1^+/− mice. In human tissues, fold change in transcript expression in NPC liver and cerebellum was expressed relative to average expression in age-matched controls. Starting at P21 and once a week thereafter, Npc1^nih and Npc1^nmf164 mice were injected i.p with 20% 2-hydroxypropyl-beta-cyclodextrin (HPβCD, 4000 mg/Kg) prepared in 0.2% DMSO and 0.9% saline. Control mice received 0.2% DMSO in 0.9% saline. Blood was collected either via cheek bleed or terminal heart bleed from mice in EDTA tubes (BD Biosciences, San Jose, Calif., USA). Plasma was separated by centrifugation at 2500 rpm for 15 min and stored at −70° C. until used.

[3] = tested on: Npc1^nih Npc1^−/− mouse brain; assay: qPCR of cathepsins and inflammatory markers in brain after HPβCD; format: in vivo
Text: as §1

[4] = tested on: Npc1^nih mice; assay: Onset of symptoms and survival of HPβCD-treated Npc1^nih mice; format: in vivo, mouse; settings: weekly 4000 mg/Kg from P21
Experimental: Starting at P21 and once a week thereafter, Npc1^nih and Npc1^nmf164 mice were injected i.p with 20% 2-hydroxypropyl-beta-cyclodextrin (HPβCD, 4000 mg/Kg) prepared in 0.2% DMSO and 0.9% saline. Control mice received 0.2% DMSO in 0.9% saline. Blood was collected either via cheek bleed or terminal heart bleed from mice in EDTA tubes (BD Biosciences, San Jose, Calif., USA). Plasma was separated by centrifugation at 2500 rpm for 15 min and stored at −70° C. until used.
To examine time points of advanced disease, we returned to the shorter, Npc1^nih model. This model typically manifests phenotypic symptoms (weight loss, gait, tremor etc.) from ˜50-55 days and survives up to ˜80-84 days (FIG. 18A). […] We therefore treated Npc1^−/− mice with HPβCD or vehicle control (0.2% DMSO in 0.9% saline) with once a week drug injections (4000 mg/Kg) starting at age P21. […] As reported earlier, the plasma lysozyme activity of vehicle treated Npc1^−/− mice was elevated on average 2-fold in early symptomatic (50-60 days) animals (FIG. 18B) and remained elevated at the late symptomatic stage (70 days) compared to age matched controls (FIG. 18C).

For CC(O)COC[C@H]1O[C@@H]2O[C@H]3[C@H](O)[C@@H](O)[C@@H](O[C@H]4[C@H](O)[C@@H](O)[C@@H](O[C@H]5[C@H](O)[C@@H](O)[C@@H](O[C@H]6[C@H](O)[C@@H](O)[C@@H](O[C@H]7[C@H](O)[C@@H](O)[C@@H](O[C@H]8[C@H](O)[C@@H](O)[C@@H](O[C@H]1[C@H](O)[C@H]2O)O[C@@H]8COCC(C)O)O[C@@H]7COCC(C)O)O[C@@H]6COCC(C)O)O[C@@H]5COCC(C)O)O[C@@H]4COCC(C)O)O[C@@H]3COCC(C)O (stereo partly drawn) [HPβCD, 2-hydroxypropyl-beta-cyclodextrin], the plasma lysozyme activity [1] was “significantly reduced; also recorded: rendered comparable to untreated wild type animals”, the plasma lysozyme activity ([1]; listed as H∪CD) was “decrease” and the “expression of Cd68 in liver” value ([2]; Npc1^−/− mice) was “reduced to normal levels”. The “expression of Col1a in liver” value ([2]; Npc1^−/− mice) was “anomalous reduction”, the “expression of Itgax in liver” value ([2]; Npc1^−/− mice) was “reduced to normal levels” and the “Lyz1 expression in liver” value ([2]; Npc1^−/− mice, late stages) was “abrogated Lyz1 over expression; also recorded: restored lysozyme transcript and protein to normal levels”. The “expression of Ctss in liver” value ([2]; late stage Npc1^−/− mice) was “markedly reduced and equivalent to control mice”, the “Lyz1 expression in brain, fold elevation” value ([3]; HPβCD-treated Npc1^−/−, late stages, untreated ~81-fold) was about 28 fold and the “Gfap transcript in brain” value ([3]; HPβCD-treated Npc1^−/−, untreated ~9-fold) was “slightly reduced”. For the same molecule, the “Cd68 transcript in brain relative to Npc1^+/− mice” value ([3]; HPβCD-treated Npc1^−/−, untreated ~24-fold) was about 6 fold, the “Mip-1α transcripts in brain, fold increase” value ([3]; HPβCD-treated Npc1^−/−, untreated ~44-fold) was about 27 fold and the “transcripts of neuron specific 24-hydroxylase” value ([3]; NPC mouse brain, qPCR) was “no effect”. The “expression of Ctsb in brain” value ([3]; Npc1^−/− mice, qPCR) was “returned to normal levels”, the “expression of Ctsd in brain” value ([3]; Npc1^−/− mice, qPCR) was “partial reduction” and the “expression of Ctss in brain” value ([3]; Npc1^−/− mice, qPCR) was “partial reduction”. For the same molecule, the survival ([4]; untreated up to ~80-84 days) was 105 to 112 days and the onset of symptoms ([4]; untreated ~49-56 days) was 70 to 80 days.
